In US12545677B2, “Compounds useful as factor XIa inhibitors” (JANSSEN PHARMACEUTICA NV, priority 2020, dated 2026):
Where two headings read alike, the source gives them in different places.

How the values were obtained:
[1] = system: TK6 human lymphoblastoid cell line; assay: In vitro micronucleus assay; assay type: cell-based; conditions: TK6 cells, 3 h +S9 and continuous -S9; score of 1 = clearly negative
Experimental: Biological Example 8: In Vitro Micronucleus Assay
The in vitro micronucleus test (MNT) is a genotoxicity test for the detection of micronuclei (MN) in the cytoplasm of interphase cells. Micronuclei may originate from acentric chromosome fragments (i.e., lacking a centromere) or whole chromosomes that are unable to migrate to the poles during the anaphase stage of cell division. Compounds and/or their metabolites are evaluated for their ability to induce chromosome/genome aberrations in a TK6 human lymphoblastoid cell line, in the absence and in the presence of a mammalian metabolic activation system. Human TK6 cells are often used in the in vitro micronucleus test and it is noteworthy that these cells have a wild-type p53 status, a feature that some groups speculate may help to reduce the frequency of false positive results. The assessment is done by means of manual and/or semi-automated microscopical analysis.
The in vitro micronucleus test using TK6 cells is an accepted regulatory genotoxicity assay. […]
Assay principle: Cell cultures were exposed to the test compound both with and without an exogenous source of metabolic activation. […] Harvested and stained interphase cells were analyzed for the presence of micronuclei. […]

[2] = Reactive metabolite study in human liver microsomes (GSH/KCN trapping); assay type: in vitro ADME; conditions: human liver microsomes 1 mg/mL protein, 10 μM substrate, NADPH, 1 mM GSH, 1 mM KCN, 37° C., 60 min
Experimental: Reactive Metabolite Study in Human Liver Microsomes
The compound of formula (I-A) was assessed for bioactivation in HLM using GSH and KCN as trapping agents. The compound was incubated in human liver microsomes supplemented with NADPH, KCN and GSH at 37° C. for 60 min. The incubations were conducted with 1 mg/mL protein, 10 μM substrate, 1 mM GSH (non-labeled and labeled at 3:1) and KCN 1 mM (non-labeled and labeled at 3:1) in a total volume of 1 mL. Nefazodone (10 μM) was incubated under the same conditions as a positive control. After incubations, protein precipitation was performed for extraction of the metabolites by mixing with 5× volume of acetonitrile. The proteins were pelleted by centrifugation (3000 rpm, 10 minutes, 4° C.) and the supernatants were transferred into clean test tubes and evaporated to dryness under a gentle stream of nitrogen. The resulting residues were reconstituted in 300 μL of solvent mixture of water:acetonitrile (8:2 v/v) containing 0.1% formic acid prior to filtration using 0.45 μm nylon filter at 10,000×g at room temperature for 3 minutes. The filtrate was transferred to a 96-well plate for liquid chromatography/tandem mass spectrometric (LC-MS/MS) analysis.
LC-MS/MS analysis: Agilent 1260 Infinity UHPLC was coupled to a Bruker Q-TOF. The mass spectrometers were operated in a positive electrospray ionization mode. […]

CYP3A4 = target: T1, CYP3A4 (Homo sapiens, UniProt P08684); assay: Assessment of TDI potential using the IC50 shift method; assay type: in vitro ADME; conditions: CYP3A4 (testosterone)
T1 construct: Frozen human liver microsomes (HLM) were thawed at 37° C; from tissue; host or cells: human liver microsomes
Experimental: Assessment of TDI Potential Using the IC50 Shift Method
To establish the potential for TDI of a particular P450 isozyme, the test compound is preincubated over a concentration range (typically 0.04 to 10 μM) with HLMs in the presence of cofactor NADPH for 30 minutes. After pre-incubation, a probe substrate known to be specifically metabolized to a defined metabolite by the isoform under investigation is then added at fixed concentration. Following a pre-defined incubation period (e.g. 10 minutes for the CYP3A4 testosterone assay), the reaction is terminated by addition of a suitable organic solvent (typically, acetonitrile) containing an internal standard. The samples are centrifuged prior to analysis by LC-MS/MS analysis and IC50 TDI value is calculated using curve fitting. This is compared to the IC50 for reversible inhibition, obtained when the pre-incubation step is performed in the absence of […] (IC50 Rev). A leftwards shift in the IC50 (i.e. increased inhibition) upon pre-incubation indicates the potential for TDI of that isozyme. The IC50 shift value is calculated as the ratio of IC50 Rev/IC50 TDI.
The assay was performed on a fully automated Tecan robotic system. Sample analysis was performed via LC-MS/MSMS using stable-labelled internal standard of the probe substrate metabolite.

T1 sequence (P08684 whole entry): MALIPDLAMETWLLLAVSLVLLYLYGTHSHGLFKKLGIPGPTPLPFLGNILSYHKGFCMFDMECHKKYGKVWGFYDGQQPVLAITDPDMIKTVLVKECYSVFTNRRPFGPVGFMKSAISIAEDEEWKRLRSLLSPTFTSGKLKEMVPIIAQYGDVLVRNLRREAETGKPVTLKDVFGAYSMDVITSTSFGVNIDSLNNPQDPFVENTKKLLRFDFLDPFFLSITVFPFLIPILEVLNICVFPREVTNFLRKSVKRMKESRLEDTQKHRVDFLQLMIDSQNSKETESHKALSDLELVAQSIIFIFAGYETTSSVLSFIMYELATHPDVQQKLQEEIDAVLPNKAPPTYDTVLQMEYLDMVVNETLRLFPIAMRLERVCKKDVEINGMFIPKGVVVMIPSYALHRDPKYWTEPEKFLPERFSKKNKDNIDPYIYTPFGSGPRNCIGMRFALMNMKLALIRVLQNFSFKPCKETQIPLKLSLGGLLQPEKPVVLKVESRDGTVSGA

O=C1C=C(c2c(-n3cnnn3)ccc(Cl)c2F)C[C@H]2CC[C@@H](c3ncc(-c4ccnc(CO)c4F)[nH]3)N12 [Compound of formula (I-A), (3S,8aR)-7-(3-Chloro-2-fluoro-6-(1H-tetrazol-1-yl)phenyl)-3-(5-(3-fluoro-2-(hydroxymethyl)pyridin-4-yl)-1H-imidazol-2-yl)-2,3,8,8a-tetrahydroindolizin-5(1H)-one]
in vitro MNT assay result [1]: negative | formation of GSH adducts or KCN adducts [2]: did not form GSH adducts or KCN adducts | % maximum concentration, without pre-incubation (CYP3A4; HLM): 68.2% | % maximum concentration, with pre-incubation (CYP3A4; HLM, 30 minutes pre-incubation): 62.8% | IC50 (CYP3A4; HLM, 30 minutes pre-incubation with NADPH, read-out: IC50 with pre-incubation): 17.5 ± 2.5 µM | IC50 (CYP3A4; HLM, standard solvent conditions, read-out: IC50 without pre-incubation): 12.2 ± 1.4 µM | IC50 shift (CYP3A4; ratio of IC50 Rev/IC50 TDI): 0.70
